Read-outs that look alike come from different tables or passages of the source.
Tests used:
[1] = Solvent solubility assessment by visual inspection; type: physicochemical
Method: Compounds were weighed and placed into a 4 dram vials and solvents were added to the target concentration. Compounds were vortex and visually inspected for particulates and considered soluble if clear upon visual inspection with and without magnification. Solubility was reported as either greater than (>) or less than (<) from the prepared concentration. […] It was evaluated at 10 mg/mL in 0.1 N NaCl and was freely soluble. It was evaluate at 1 mg/mL in 0.1 N NaOH and 0.1 N Na2HPO4 and was freely soluble. In ethanol and methanol it was freely soluble at a concentration of 75 mg/mL. […] It was freely soluble at 75 mg/mL in methanol and ethanol. It was soluble at 1 mg/mL in 1N HCl.

[2] = Benchtop solvent stability exposed to light, HPLC-UV 230 nm, up to 7 days; type: physicochemical; settings: for Stability in solvent: benchtop, exposed to light
Method: Compounds in solvent were left on the benchtop exposed to light for up to 7 days since it is known that Compound 1 will degrade with light within 3-7 days.
Stability was assessed by taking an aliquot from the solubility vials at each test day. A single replicate was injected for each test condition.
Samples were injected onto an HPLC system with an aqueous mobile phase and acetonitrile organic phase and compounds were separated on a C8 50×2 mm column. Wavelength 230 nm was monitored for absorption and integrated for peak area while the mass spectrometer was used to confirm mass. Samples were tested on Day 1 and on subsequent days through Day 7.

[3] = 1000 ng/mL
Method: Plasma was collected by the biomaterial vendor and kept frozen at −20° C.
The samples were analyzed by HPLC separation and mass spectrometry detection for prodrug amount, relative to a baseline time 0 control sample. Triplicate samples were generated at each time point and the peak area response was averaged and converted to a percent of baseline control.

[4] = Pharmacokinetics of ezogabine prodrugs in rat (IV, IM, PO); settings: rat, in vivo, po
Method: Blood was diluted by 10% with these stabilizers.
Extraction of the molecules was conducted by taking a 50 uL aliquot of plasma and adding 200 uL of acetonitrile containing 200 ng/mL tolbutamide as the internal standard. Samples were precipitated in a 96 well plate, centrifuges and an aliquot transferred to a new plate, dried down under heat and nitrogen and then reconstituted in the initial mobile phase conditions of the LC-MS/MS method. […] A standard curve was prepared from 5000 ng/mL to 1 ng/mL for each analyte. Concentration data from the bioanalytical run was analyzed by Phoenix Winnonlin version 8 for noncompartmental PK analysis, plotting of concentration time curves and tabulation of PK parameters.
150 uL of blood were collected at predesignated time points. At completion of the study animals were asphyxiated by carbon dioxide gas and exsanguinated for euthanasia.

[5] = target: Human Kv7.2/7.3 (Homo sapiens, UniProt O43525+O43526); assay: In vitro screen of Kv7.2/7.3 voltage gated potassium channels (FluxOR, FLIPR); type: cell-based; settings: Human Kv7.2/7.3 cells; FluxOR fluorescence; 0.03 to 30 μM
Method: Human Kv7.2/7.3 cells are harvested, counted and seeded in black, clear-bottomed 96 well plates at a density of 50,000 cells per well in 100 μl volume and incubated overnight. The following day, media was removed and 40 μl of loading buffer (4.895 mL HBSS:HEPES, 50 μL probenecid, 50 μL power load, 5 μl FluxOR reagent) was added and incubated at room temperature for 30 minutes. After incubation loading buffer was removed and 40 μl of assay buffer added (4.45 ml HBSS:HEPES, 500 μl FluxOR assay buffer and 50 μL probenecid) and incubated for 10 minutes.

[6] = test system: CCI model of neuropathic pain; assay: CCI model of neuropathic pain (pin prick, von Frey); type: in vivo, Sprague Dawley rat; settings: CCI rats, 1 h after pretreatment
Method: Compound 3 was tested for reversal of mechanical hypersensitivity to the pin prick test for hindlimb paw withdraw and the von Frey hairs for gram force mechanical allodynia in the CCI model of neuropathic pain. Male Sprague Dawley rats (n=8/group) were tested for baseline sensitivity on Day 1 (ipsilateral and contralateral paws) and administered XYG-203 orally; 40 mg/kg on Day 1, 20 mg/kg Day 3, 10 mg/kg Day 5, 5 mg/kg Day 7, 1 mg/kg Day 10 and baseline on Day 12. Mechanical hypersensitivity was tested 1 h after pretreatment. Data (mean±SD) were analyzed with a repeated measures ANOVA with Dunnet's adjustment for multiple comparisons.

[7] = Rat PK at equimolar dose to Ezogabine (20 mg/kg) in 0.5% methylcellulose; settings: for AUClast/D / Cmax/D: male cannulated rats, equimolar to Ezogabine 20 mg/kg, 0.5% methylcellulose, analyte the dosed prodrug
Method: (§1) Blood samples were collected at the same time points over 24 hours to generate a concentration time profile. Two male rats were dosed per group. Plasma samples were analyzed by LC/MS/MS and the resulting concentration time profiles and PK parameters are provided.
as §1, §1

[8] = Acid and organic solution stability, HPLC-UV 250 nm; settings: 5 mg/mL; for Degradation / conversion to ezogabine in solution: acidic solutions and organic solvents, up to 3 weeks
Method: An HPLC-UV Vis method was developed using 0.1% Formic acid in water as mobile phase A and 0.1% Formic acid in acetonitrile as mobile Phase B. A gradient method was developed ramping from 10% A to 90% B over 8 minutes and then returning to 10% A at 8.5 minutes on a 4.6×50 mm Zorbax C-18 column. Injections of 10 uL of stability solutions were injected for analyte detection.
[…] Aliquots were collected at serial time points and then diluted to a nominal concentration of 100 ug/mL for injection to the HPLC and 250 nm monitored by the diode array detector. Data at approximately 10 days is presented.
Aliquots were collected at serial time points and then diluted to a nominal concentration of 100 ug/mL for injection to the HPLC and 250 nm monitored by the diode array detector.
(§2) It was also evaluated at 2 N HCl at 37° C. Aliquots were collected at serial time points and then diluted to a nominal concentration of 100 ug/mL for injection to the HPLC and 250 nm monitored by the diode array detector.
as §2, §2, §2

[9] = test system: MES induced seizures; assay: MES assay in CF-1 mice, Compound 28 IP dose response; type: in vivo, CF-1 mouse; settings: for Animals protected from MES induced seizures: 30 minutes after administration

Chain of Human Kv7.2/7.3 (O43526 whole entry): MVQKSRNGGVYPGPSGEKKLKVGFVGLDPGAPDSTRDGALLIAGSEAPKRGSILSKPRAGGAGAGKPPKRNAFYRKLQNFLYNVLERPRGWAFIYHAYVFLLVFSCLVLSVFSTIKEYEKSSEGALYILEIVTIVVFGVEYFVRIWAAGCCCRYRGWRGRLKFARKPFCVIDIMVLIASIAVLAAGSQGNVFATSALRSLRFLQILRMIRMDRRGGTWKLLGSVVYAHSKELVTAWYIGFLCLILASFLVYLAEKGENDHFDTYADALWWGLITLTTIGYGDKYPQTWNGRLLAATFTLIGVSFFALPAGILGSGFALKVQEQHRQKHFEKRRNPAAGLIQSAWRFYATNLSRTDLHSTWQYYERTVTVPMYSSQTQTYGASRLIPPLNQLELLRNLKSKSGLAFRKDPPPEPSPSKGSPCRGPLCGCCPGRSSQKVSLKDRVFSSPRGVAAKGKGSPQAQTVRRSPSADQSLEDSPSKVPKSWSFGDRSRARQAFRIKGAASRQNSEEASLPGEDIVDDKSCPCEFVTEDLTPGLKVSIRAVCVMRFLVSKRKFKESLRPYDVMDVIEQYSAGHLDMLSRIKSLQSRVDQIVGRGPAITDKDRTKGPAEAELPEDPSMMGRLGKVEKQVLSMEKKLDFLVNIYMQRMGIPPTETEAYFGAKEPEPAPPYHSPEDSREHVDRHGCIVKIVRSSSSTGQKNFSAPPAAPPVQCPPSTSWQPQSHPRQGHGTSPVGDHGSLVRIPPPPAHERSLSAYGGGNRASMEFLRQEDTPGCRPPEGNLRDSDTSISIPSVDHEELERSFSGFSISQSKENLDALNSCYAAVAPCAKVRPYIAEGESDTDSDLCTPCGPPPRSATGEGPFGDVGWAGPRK
Chain of Human Kv7.2/7.3 (O43525 whole entry): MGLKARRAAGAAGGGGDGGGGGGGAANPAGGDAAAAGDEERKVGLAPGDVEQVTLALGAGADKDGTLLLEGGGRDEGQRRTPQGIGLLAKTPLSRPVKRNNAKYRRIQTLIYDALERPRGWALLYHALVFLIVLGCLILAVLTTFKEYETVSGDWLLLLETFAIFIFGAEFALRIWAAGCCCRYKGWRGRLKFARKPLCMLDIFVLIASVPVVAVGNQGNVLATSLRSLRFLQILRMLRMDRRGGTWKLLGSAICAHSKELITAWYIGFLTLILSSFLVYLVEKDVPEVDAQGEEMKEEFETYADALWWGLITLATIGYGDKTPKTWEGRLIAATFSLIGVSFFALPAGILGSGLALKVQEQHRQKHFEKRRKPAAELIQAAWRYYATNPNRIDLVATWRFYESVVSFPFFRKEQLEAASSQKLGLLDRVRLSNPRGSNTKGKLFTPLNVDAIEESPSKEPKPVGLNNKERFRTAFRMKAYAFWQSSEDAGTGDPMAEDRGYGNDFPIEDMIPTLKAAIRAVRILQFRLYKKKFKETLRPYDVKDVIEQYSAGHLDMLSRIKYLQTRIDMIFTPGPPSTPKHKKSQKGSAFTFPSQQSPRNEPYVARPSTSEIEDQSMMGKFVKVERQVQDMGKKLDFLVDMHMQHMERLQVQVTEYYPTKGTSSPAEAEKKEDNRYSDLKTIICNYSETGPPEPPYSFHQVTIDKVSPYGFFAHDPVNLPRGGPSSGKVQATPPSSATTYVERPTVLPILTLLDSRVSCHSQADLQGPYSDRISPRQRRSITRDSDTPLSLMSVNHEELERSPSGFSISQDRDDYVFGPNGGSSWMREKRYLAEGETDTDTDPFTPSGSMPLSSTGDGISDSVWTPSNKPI

With `CCOC(=O)Nc1ccc(NCc2ccc(F)cc2)cc1NC(=O)OC(C)OC(=O)C(C)C` (stereo not shown) [Compound 3] the Solubility ([1]; 0.1N HCl) was under 1000 µg/mL, the Solubility ([1]; 0.1 N Na2HPO4, aqueous buffer, thermodynamic from solid, read-out: Solubility (freely soluble at tested concentration)) was under 1000 µg/mL and the Solubility ([1]; 0.1N NaCl) was under 1000 µg/mL. For the same compound, the Solubility ([1]; 0.1 N NaCl, saline or isotonic, thermodynamic from solid, read-out: Solubility (freely soluble at tested concentration)) was under 1000 µg/mL, the Solubility ([1]; 0.1N NaOH) was under 1000 µg/mL and the Solubility ([1]; 0.1 N NaOH, aqueous buffer, thermodynamic from solid, read-out: Solubility (freely soluble at tested concentration)) was under 1000 µg/mL. For the same compound, the Solubility ([1]; 0.1 Na2HPO4) was under 1000 µg/mL, the Solubility ([1]; 1N HCl) was over 1000 µg/mL and the Solubility ([1]; Ethanol) was over 75000 µg/mL. The Solubility ([1]; Methanol) was over 75000 µg/mL, the Solubility ([1]; Water) was under 1000 µg/mL and the Solubility ([1]; aqueous buffer, thermodynamic from solid, 1N HCl, read-out: Solubility (soluble at tested concentration)) was over 1000 µg/mL. For the same compound, the Solubility ([1]; ethanol, organic solvent or mixture, thermodynamic from solid, read-out: Solubility (freely soluble at tested concentration)) was over 75000 µg/mL, the Solubility ([1]; methanol, organic solvent or mixture, thermodynamic from solid, read-out: Solubility (freely soluble at tested concentration)) was over 75000 µg/mL and the Solubility ([1]; simulated gastric fluid, thermodynamic from solid, 0.1N HCl, read-out: Solubility (freely soluble at tested concentration)) was under 1000 µg/mL. For the same compound, the Solubility ([1]; water, thermodynamic from solid, read-out: Solubility (freely soluble at tested concentration)) was under 1000 µg/mL, the Stability in solvent ([2]; 0.1 N HCl) was “appears to be stable over 4 days” and the “Change of solubility over time” value ([2]; 0.1N Na2HPO4, H2O, 0.1N NaCl, Day 1 to Day 3) was “increases in solubility over time”. The Stability in solvent ([2]; 1 N HCl) was “not stable in 1 N HCl over 7 days”, the Stability in solvent ([2]; ethanol and methanol) was “soluble and stable through 3 days in ethanol and methanol, while on Day 4 it exhibits degradation” and the “Time by which prodrug is degraded in plasma” value ([3]; mouse) was at most 1 h. For the same compound, the “Time by which prodrug is degraded in plasma” value ([3]; rat) was at most 1 h, the “Exposure of the prodrug itself in systemic circulation” value [4] was “very little exposure” and the “Activity against the primary target of Kv7.2/7.3” value [5] was “inactive”. For the same compound, the “Reversal of mechanical hypersensitivity vs baseline” value ([6]; oral 5 mg/kg) was “the 95% confidence intervals did not cross the baseline mean”, the “Gram force to paw lift (von Frey)” value ([6]; oral 40 mg/kg) was “increased the gram force to paw lift significantly” and the “Reduction of latency of neuropathic ipsilateral paw withdrawal (pin prick)” value ([6]; oral 40 mg/kg, p=0.0003) was 9.2 s. The AUClast/D [7] was 0.0136 ng·h/mL/mg/kg, the Cmax/D [7] was 0.0273 ng/mL/mg/kg and the “Total exposure of ezogabine relative to ezogabine on a given molar dose” value ([7]; male, rat, in vivo) was over 2 fold. For the same compound, the “Colour of stability solution” value [8] was “clear and colorless through Day 18”, the “Ezogabine Area (formed from the prodrug)” value ([8]; 0.1N HCl, room temp., normal light, 433 h) was 400 mAU and the “Ezogabine Area (formed from the prodrug)” value ([8]; 1N HCl, room temp., normal light, 97 h) was 2881 mAU. For the same compound, the “Ezogabine Area (formed from the prodrug)” value ([8]; Acetonitrile, room temp., normal light, 435 h) was 51 mAU, the “Ezogabine Area (formed from the prodrug)” value ([8]; Ethanol, room temp., normal light, 390 h) was 43 mAU and the “Ezogabine Area (formed from the prodrug)” value ([8]; Methanol, room temp., normal light, 435 h) was 41 mAU. The “Degradation / conversion to ezogabine in solution” value (“Degradation / conversion” below) [8] was “converts to ezogabine under acidic conditions but does not in organic solvent”, the “Colour of stability solution” value ([8]; 9 days) was “turned a golden yellow by Day 9” and the “% Remaining” value ([8]; 390 h) was 97.6%. For the same compound, the “% Remaining” value ([8]; buffer, 97 h) was 1.78% and the “% Remaining” value ([8]; buffer, 433 h) was 11.8%.

In the case of `CCOC(=O)Nc1ccc(NCc2ccc(F)cc2)cc1NC(=O)[C@H](N)CO` [Compound 6], the AUClast/D [7] is reported as 199 ng·h/mL/mg/kg, the Cmax/D [7] is reported as 233 ng/mL/mg/kg and the “Colour of stability solution” value [8] is reported as “remained clear and colorless through Day 18”. For the same compound, the “Ezogabine Area (formed from the prodrug)” value ([8]; 1N HCl, room temp., normal light, 437 h) was 58 mAU, the “Ezogabine Area (formed from the prodrug)” value ([8]; 2N HCl 37C, 437 h) was 461 mAU and the “Ezogabine Area (formed from the prodrug)” value ([8]; 2N HCl, room temp., normal light, 437 h) was 177 mAU. The “Ezogabine Area (formed from the prodrug)” value ([8]; Methanol, room temp., normal light, 437 h) was 184 mAU, the “Degradation / conversion” value [8] was “very little degradation to ezogabine” and the “% Remaining” value ([8]; 437 h) was 67.7%.

For `CCOC(=O)Nc1ccc(NCc2ccc(F)cc2)cc1NC(=O)C[C@@H](CN)CC(C)C` [Compound 28], the AUClast/D [7] was 83.0 ng·h/mL/mg/kg, the Cmax/D [7] was 9.31 ng/mL/mg/kg and the “Animals protected from MES induced seizures” value ([9]; IP 12 mg/kg) was 1 of 9. The “Animals protected from MES induced seizures” value ([9]; IP 24 mg/kg) was 3 of 9, the “Protection against MES induced seizures” value ([9]; IP 1.5, 3, 6, 12 and 24 mg/kg) was “None of the doses showed complete protection” and the “Ezogabine Area (formed from the prodrug)” value ([8]; 0.1N HCl, room temp., normal light, 440 h) was 0 mAU. For the same compound, the “Ezogabine Area (formed from the prodrug)” value ([8]; 1N HCl, room temp., normal light, 440 h) was 568 mAU, the “Ezogabine Area (formed from the prodrug)” value ([8]; 2N HCl 37C, 440 h) was 3593 mAU and the “Ezogabine Area (formed from the prodrug)” value ([8]; 2N HCl, room temp., normal light, 440 h) was 1462 mAU. The “Ezogabine Area (formed from the prodrug)” value ([8]; Acetonitrile, room temp., normal light, 440 h) was 248 mAU, the “Ezogabine Area (formed from the prodrug)” value ([8]; Methanol, room temp., normal light, 440 h) was 0 mAU and the “Degradation / conversion” value [8] was “exhibits degradation to ezogabine with increasing strength of the acidic solution”.

For `CCNC(=O)CC[C@H](N)C(=O)Nc1cc(NCc2ccc(F)cc2)ccc1NC(=O)OCC.Cl` [Compound 29], the AUClast/D [7] was 305 ng·h/mL/mg/kg, the Cmax/D [7] was 44.2 ng/mL/mg/kg and the “Ezogabine Area (formed from the prodrug)” value ([8]; 0.1N HCl, room temp., normal light, 441 h) was 0 mAU. The “Ezogabine Area (formed from the prodrug)” value ([8]; 1N HCl, room temp., normal light, 441 h) was 1241 mAU, the “Ezogabine Area (formed from the prodrug)” value ([8]; 2N HCl 37C, 441 h) was 1755 mAU and the “Ezogabine Area (formed from the prodrug)” value ([8]; 2N HCl, room temp., normal light, 441 h) was 1659 mAU. The “Ezogabine Area (formed from the prodrug)” value ([8]; Methanol, room temp., normal light, 441 h) was 0 mAU and the “Degradation / conversion” value [8] was “exhibits degradation under acidic conditions and also conversion to ezogabine”.

Source: patent US20240208896A1, “PRODRUGS OF KV7 CHANNEL OPENERS” (Xyzagen, Inc., priority 2021, published 2024)
